{
  "source": "patent US5254677A",
  "about": "“β-galactosidase substrates for cedia” (Boehringer Mannheim GmbH, priority 1990, dated 1993)",
  "key": {"[1]": {"test": "Absorption maxima of the chromogen and associated extinction coefficients", "assay_type": "physicochemical", "settings": "0.1 mole/l. potassium phosphate buffer (pH 7.0); for ε (extinction coefficient): at the absorption maximum of the chromogen", "description": "1. Wavelengths of the absorption maxima of the chromogen and the associated extinction coefficients (ε).\nMeasurement in 0.1 mole/l. potassium phosphate buffer (pH 7.0) at the absorption maximum of the chromogen."}, "β-galactosidase": {"biological_target": "T1, β-galactosidase (Escherichia coli, UniProt P00722)", "T1 construct": "not the CEDIA donor/acceptor fragments", "T1 sequence (P00722 2-1024)": "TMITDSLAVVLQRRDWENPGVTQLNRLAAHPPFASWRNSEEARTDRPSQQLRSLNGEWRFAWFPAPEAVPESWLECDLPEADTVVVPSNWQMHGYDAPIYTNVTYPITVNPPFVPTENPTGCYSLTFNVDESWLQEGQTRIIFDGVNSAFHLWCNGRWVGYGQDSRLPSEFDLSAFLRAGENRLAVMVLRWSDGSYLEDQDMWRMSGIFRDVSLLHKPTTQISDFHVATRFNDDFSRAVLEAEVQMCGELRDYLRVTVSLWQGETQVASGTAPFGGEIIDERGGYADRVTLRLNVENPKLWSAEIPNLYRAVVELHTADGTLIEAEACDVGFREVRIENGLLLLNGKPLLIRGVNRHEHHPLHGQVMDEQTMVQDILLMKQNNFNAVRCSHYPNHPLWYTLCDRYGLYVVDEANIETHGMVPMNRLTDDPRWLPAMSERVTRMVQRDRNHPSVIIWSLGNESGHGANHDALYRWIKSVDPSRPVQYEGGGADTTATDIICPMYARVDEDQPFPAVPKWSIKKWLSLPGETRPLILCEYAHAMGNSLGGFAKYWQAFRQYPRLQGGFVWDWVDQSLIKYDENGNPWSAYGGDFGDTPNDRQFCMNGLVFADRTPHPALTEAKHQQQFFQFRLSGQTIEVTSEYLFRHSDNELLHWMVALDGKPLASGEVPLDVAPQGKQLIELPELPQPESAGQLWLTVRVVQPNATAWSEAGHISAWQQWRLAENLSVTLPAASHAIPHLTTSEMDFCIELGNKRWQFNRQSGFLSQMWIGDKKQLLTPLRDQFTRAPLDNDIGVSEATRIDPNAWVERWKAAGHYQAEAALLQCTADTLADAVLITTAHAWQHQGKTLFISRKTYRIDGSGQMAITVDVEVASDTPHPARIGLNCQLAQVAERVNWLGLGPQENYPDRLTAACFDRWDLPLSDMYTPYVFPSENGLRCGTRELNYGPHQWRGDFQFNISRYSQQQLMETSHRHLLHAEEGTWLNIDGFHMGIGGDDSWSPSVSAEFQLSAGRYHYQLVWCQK", "test": "Enzyme activity: extinction change per minute with identical amounts of β-galactosidase (sensitivity and enzymatic cleavage rate of substrates)", "assay_type": "biochemical", "settings": "measured at the absorption maximum of the particular chromogen (405/376/384/408 nm), 0.05M potassium phosphate buffer pH 7.0", "protocol": "2. Sensitivity comparison of the substrates and of their enzymatic cleavage rate.\nThe extinction change per minute (mE/min.) in the region of the absorption maximum (see Table 1) of the particular chromogen was determined with the use of identical amounts of the enzyme β-galactosidase: for the precise conditions see Example 4, II a) and b).\n1) 0.05M potassium phosphate buffer, pH 7.0\n2) 10 mmole/liter magnesium chloride solution\n3) 69.8% (v/v) mercaptoethanol solution\n4) p-galactosidase (Boehringer Mannheim GmbH, order No. 105 031)\n5) substrate, 5.9 mg./ml. in solution a)\nPre-incubation: the following substances were pipetted into plastic cuvettes: […]\nAfter mixing, the reaction was initiated: […]\nΔ/min. was calculated from the linear range."}, "[2]": {"test_system": "β-galactosidase formed from EA22 enzyme acceptor and ED4-thyroxine T4 conjugate", "test": "T4/CEDIA test (thyroxine T4 as hapten, monoclonal antibodies against T4), gradient of the calibration curve", "assay_type": "biochemical", "settings": "Hitachi 704, 37° C., substrate 1 mg./ml., 376 or 415 nm, percentage of 2-nitrophenyl-β-galactoside (=100%)", "protocol": "3. Evaluation in the T4/CEDIA (CEDIA with thyroxine T4 as hapten and monoclonal antibodies against thyroxine T4).\nThe criterion for the evaluation of the individual substrates was the gradient of the calibration curve.\nI) Carrying out of the T4/CEDIA test\nDefinitions: EA=enzyme acceptor; ED=enzyme donor; EA22 =cloned enzyme acceptor for CEDIA; ED4 =cloned enzyme donor for CEDIA. […] The amino acid sequences of these polypeptides are there disclosed.\nΔE/min. was measured in the interval of 9-10 minutes.\nCalibration curves were produced for all substrates. Of these curves, the gradients were compared. [formula]\nGradient expressed as percentage value of the 2-nitrophenyl-β-galactoside (=100%) for T4/CEDIA."}, "[3]": {"test_system": "β-galactosidase formed from EA22 enzyme acceptor and ED4-thyroxine T4 conjugate", "settings": "prior art substrate of U.S. Pat. No. 4,708,929; cited from earlier work"}},
  "data": [
    {"smiles": "O=[N+]([O-])c1ccccc1O", "note": "[2-nitrophenol]", "values": [
      {"measurement": "lambda max", "setting": "[1]", "result": 408, "unit": "nm"},
      {"measurement": "ε (extinction coefficient)", "setting": "[1]", "result": 2040, "unit": "L/mol/cm"}
    ]},
    {"smiles": "N#Cc1cc([N+](=O)[O-])ccc1O[C@@H]1O[C@H](CO)[C@H](O)[C@H](O)[C@H]1O", "note": "[Example 2-CN-4-NPG, 2-cyano-4-nitrophenyl-β-D-galactopyranoside]", "values": [
      {"measurement": "extinction change per minute", "setting": "β-galactosidase", "result": 0.150, "unit": "mE/min."},
      {"measurement": "relative gradient of the calibration curve", "setting": "[2]", "result": 561, "unit": "%"}
    ]},
    {"smiles": "O=[N+]([O-])c1ccc(O)c(Cl)c1", "note": "[2-Cl-4-nitrophenol]", "values": [
      {"measurement": "lambda max", "setting": "[1]", "result": 405, "unit": "nm"},
      {"measurement": "ε (extinction coefficient)", "setting": "[1]", "result": 16600, "unit": "L/mol/cm"}
    ]},
    {"smiles": "O=[N+]([O-])c1ccccc1O[C@@H]1O[C@H](CO)[C@H](O)[C@H](O)[C@H]1O", "note": "[oNPG, 2-nitrophenyl-β-D-galactopyranoside, reference compound]", "values": [
      {"measurement": "sensitivity as chromogenic enzyme substrate for CEDIA", "setting": "[3]", "result": "low sensitivity"},
      {"measurement": "extinction change per minute", "setting": "β-galactosidase", "result": 0.024, "unit": "mE/min."},
      {"measurement": "relative gradient of the calibration curve", "setting": "[2]", "result": 100, "unit": "%"}
    ]},
    {"smiles": "N#Cc1cc([N+](=O)[O-])ccc1O", "note": "[2-CN-4-nitrophenol, 2-Hydroxy-5-nitrobenzonitrile]", "values": [
      {"measurement": "lambda max", "setting": "[1]", "result": 376, "unit": "nm"},
      {"measurement": "ε (extinction coefficient)", "setting": "[1]", "result": 15700, "unit": "L/mol/cm"}
    ]},
    {"smiles": "O=[N+]([O-])c1ccc(O[C@@H]2O[C@H](CO)[C@H](O)[C@H](O)[C@H]2O)c(C(F)(F)F)c1", "note": "[Example 2-CF3-4-NPG, 2-trifluoromethyl-4-nitrophenyl-β-D-galactopyranoside]", "values": [
      {"measurement": "extinction change per minute", "setting": "β-galactosidase", "result": 0.109, "unit": "mE/min."},
      {"measurement": "relative gradient of the calibration curve", "setting": "[2]", "result": 528, "unit": "%"}
    ]},
    {"smiles": "O=[N+]([O-])c1ccc(O[C@@H]2O[C@H](CO)[C@H](O)[C@H](O)[C@H]2O)c(Cl)c1", "note": "[Example 2-Cl-4-NPG, 2-chloro-4-nitrophenyl-β-D-galactopyranoside, reference compound]", "values": [
      {"measurement": "extinction change per minute", "setting": "β-galactosidase", "result": 0.085, "unit": "mE/min."},
      {"measurement": "relative gradient of the calibration curve", "setting": "[2]", "result": 494, "unit": "%"}
    ]},
    {"smiles": "O=[N+]([O-])c1ccc(O)c(C(F)(F)F)c1", "note": "[2-CF3-4-nitrophenol, 2-Trifluoromethyl-4-nitrophenol]", "values": [
      {"measurement": "lambda max", "setting": "[1]", "result": 384, "unit": "nm"},
      {"measurement": "ε (extinction coefficient)", "setting": "[1]", "result": 18800, "unit": "L/mol/cm"}
    ]}
  ]
}
